Reference: patent US20260191999A1, “COMPOUNDS AND THEIR USE” (KING'S COLLEGE LONDON, priority 2022, published 2026)
pEC50: −log10 of the molar value.

Tests used:
[1] = test system: SKOV3-TRip2 and SKOV3-ip1 cells; assay: Cell uptake of radiotracer, drug-resistant vs drug-sensitive SKOV3 cells; format: cell-based, human
Experimental: For cell uptake studies SKOV3-ip1 and SKOV3-TRip2, A549-WT, A549-KO-ALDH1A1, HEK293-WT and HEK293-ALDH1A1 cells were plated in 6 well plates 24 h prior to the studies, as described above (Western Blotting). One mL of fresh media containing 0.37 MBq of PQM-H-001 and 6 KBq PQM-H-002 was added to each well for the desired incubation time. At 40 min, plates were placed on ice, washed three times with ice-cold PBS to remove exogenous radioactivity and lysed in RIPA buffer ([…]; Fisher Scientific Ltd).
For all cell uptake and efflux study decay-corrected radioactivity in lysates was determined on a gamma counter ([…]; Wallac 1282 CompuGamma counter), with the remaining cell lysate centrifuged (21,000×g for 10 min at 4° C.) and the supernatant used to determine protein concentration following radioactive decay using a Pierce BCA assay. To quantify radiotracer uptake in cells, three standard solutions of the radioactivity-containing medium were counted on the gamma counter. Data were expressed as a percentage of total radioactivity administered to cells per mg of protein.
Next, the time-dependent uptake of the of the radiotracers PQM-H-001 ([^18F]PQM-H-001) and PQM-H-002 ([^125I]PQM-H-002) was profiled in drug-resistant SKOV3-Trip2 and drug-sensitive SKOV3-ip1 cell lines (Pereira, R., et al. 2019).

[2] = test system: SKOV3-TRip2 and SKOV3-ip1 subcutaneous tumours; assay: In vivo tumour model and PET imaging; parameters: species or system Balb/c nu/nu mice
Experimental: All animal experiments were performed in accordance with the United Kingdom Home Office Animal (scientific procedures) Act […]. […] SKOV3-ip1 and 4×10^6 and SKOV3-TRip2 cells were injected subcutaneously into female Balb/c nu/nu mice aged 6-9 weeks (Charles River Laboratories). Tumour dimensions were measured using an electronic calliper and the volume calculated using the following equation: volume=((π/6)×h×w×l), where h, w and l represent, height, width, and length, respectively. Imaging studies took place when tumour size reached approximately 150-250 mm^3. Mice were anaesthetized with isoflurane (2.5% in oxygen) and maintained at 37° C. using an air-heated scanning bed. A tail vein cannula was inserted and a 3.7 MBq bolus of PQM-H-001 was administered in approximately 100 μL of PBS. Immediately following injection, 120 min PET acquisition was performed on a Mediso nanoScan PET/CT system. […] Reconstructed images (Tera-Tomo 3D reconstruction algorithm; 4 iterations; 6 subsets; 400-600 keV; 0.4 mm voxel size) were analysed using VivoQuant software (v. 2.5, Invicro Ltd.). Regions of interest (ROIs) were drawn manually on the CT images and the radioactivity concentration in each ROI expressed as a percentage of the injected dose per mL of tissue volume (% ID/mL).

Ex vivo biodistribution = format: in vivo, BALB/c-nu/nu mice; conditions: 90 min post radiotracer injection
Experimental: PQM-H-001 distribution was further evaluated ex vivo 90 min post radiotracer injection. […] Ex-vivo distribution of PQM-H-001 was performed after PET imaging (section: In Vivo Tumour Model and PET Imaging) by sacrificing all mice at time point 120 min post injection. Blood, tumour, and major organs and tissues were collected, wet-weighed, and counted using an automated y-counter (Wallac 1282 CompuGamma g counter). The concentrations of radioactivity in blood, tumor, and organs and tissues were determined as percentage injected of total radioactivity per gram (% ID/g).

SKOV3-ip1 cells = assay: Cisplatin-induced growth inhibition, MTT assay, SKOV3-ip1; format: cell-based, human; conditions: MTT assay 72 h post treatment; second value of 'respectively' pair (SKOV3-ip1 as printed)
Experimental: FIG. 1a: Graph showing cisplatin-induced growth inhibition in SKOV3-ip1 cells (white circles) and SKOV3-TRip2 cells (filled squares) using an MTT assay 72 h post treatment (n=3-5).
The SKOV3-TRip2 cell line was generated through progressive exposure to paclitaxel (Duan et al., 1999) whereas the SKOV3-ip1 cell line remained untreated.

Structure (SMILES) | Radiotracer retention, drug resistant versus drug-sensitive cells [1] [times higher] | Retention in treatment resistant SKOV3-TRip2 tumours compared to SKOV3-ip1 tumours ([2]; PET, subcutaneous tumours, 3.7 MBq i.v. bolus) [×] | identification of drug resistant tumours in vivo (in words) ([2]; PET/CT imaging) | radiotracer retention in drug-resistant vs drug-sensitive tumours (in words) (Ex vivo biodistribution) | radiotracer retention in healthy tissues (in words) (Ex vivo biodistribution) | route of excretion (in words) (Ex vivo biodistribution) | pEC50 (SKOV3-ip1 cells)
CS(=O)(=O)N1CCN(C(=O)c2cnc3ccc([18F])cc3c2-c2ccc(C3(C#N)CC3)cc2)CC1 [PQM-H-001, 1-(4-(6-(fluoro-^18F)-3-(4-(methylsulfonyl)piperazine-1-carbonyl)quinolin-4-yl)phenyl)cyclopropane-1-carbonitrile] | 9 | > 5 | can non-invasively identify drug resistant tumours in vivo | substantially increased in the drug-resistant tumours compared to drug-sensitive tumours | Low radiotracer retention was observed in most healthy tissues, except the liver | excretion occurring via the urinary and hepatobiliary tract | –
N.N.[Cl][Pt][Cl] [cisplatin] | – | – | – | – | – | – | 5.59
